How the values were obtained:
[1] = biological target: T1, recombinant ATX-HA (Homo sapiens, UniProt Q13822); test: Autotaxin assay (FS-3 hydrolysis); assay type: biochemical; conditions: 10.0 μM; FS-3 substrate; preliminary single-dose screen
T1 construct: HA
Protocol: Autotaxin Assay. This assay utilizes FS-3 (Echelon Biosciences, Inc. Salt Lake City, Utah) as substrate and recombinant ATX-HA. For analysis, 50 μl of ATX-HA (0.25 μg) in assay buffer (Tris 50 mM, NaCl 140 mM, KCl 5mM, CaCl2 1 mM, MgCl2 1 mM, pH 8.0) was mixed with 25 μl of FS-3 (1 μM final concentration in assay buffer) and 25 μl of test compound dissolved in assay buffer containing 1:1.5 bovine serum albumin in 96-well plate. FS-3 fluorescence was monitored using FLEXstation fluorescence plate reader at a time zero and after 2 hours of incubation at 37° C. at excitation and emission wavelengths of 485 nm and 538 nm, respectively. Data was normalized to the corresponding vehicle control and the mean±standard deviation of triplicate wells were expressed as percent ATX inhibition. IC50, and Ki values were calculated as described.

[2] = biological target: T2, human LPA3 (Homo sapiens, UniProt Q9UBY5); test: Ca2+ mobilization assay, LPA3; assay type: cell-based; conditions: RH7777 cells stably expressing LPA3; agonist mode
T2 construct: expressed in transfected cells
T2 sequence (Q9UBY5 1-353): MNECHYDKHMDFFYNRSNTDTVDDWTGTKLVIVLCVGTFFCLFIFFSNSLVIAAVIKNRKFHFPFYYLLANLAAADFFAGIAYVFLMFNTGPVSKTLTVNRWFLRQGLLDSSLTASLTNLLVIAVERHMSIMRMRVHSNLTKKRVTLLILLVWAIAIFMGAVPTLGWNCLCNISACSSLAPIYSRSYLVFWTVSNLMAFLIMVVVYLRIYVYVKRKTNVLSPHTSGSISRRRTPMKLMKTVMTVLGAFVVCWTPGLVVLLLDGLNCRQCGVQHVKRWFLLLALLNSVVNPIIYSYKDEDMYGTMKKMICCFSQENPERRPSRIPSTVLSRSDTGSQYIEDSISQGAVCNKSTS
Protocol: (§1) Receptor activation using Ca^2+ mobilization assay for diastereomers of 1 (also represented as 19b). The rat hepatoma (RH7777) cell lines individually expressing either LPA1, LPA2, LPA3 or LPA5 receptors and Chinese hamster ovary (CHO) cell line were analyzed to examine agonism and antagonism. […] CHO cells stably expressing either vector or LPA4 were kindly gifted from Dr. Shimizu (University of Tokyo, Tokyo, Japan).
(§2) Stable transformants of LPA1/2/3 receptors. RH7777 cells stably expressing each receptor were plated onto poly-L-lysine (PLL) (0.1 mg/mL)-coated black-wall clear-bottom 96-well plates (Corning Incorporated Life Sciences, Acton, Mass.) at a density of 5×10^4 cells/well and cultured overnight. The following day, the culture medium was replaced with modified Krebs buffer (120 mM NaCl, 5 mM KCl, 0.62 mM MgSO4, 1.8 mM CaCl2, 10 mM HEPES, 6 mM glucose, pH 7.4), and the cells were serum starved for 6 h. Subsequently, cells were loaded with Fura-2 AM (Invitrogen, Carlsbad, Calif.) for 35 min in modified Krebs buffer containing 2% (v/v) pluronic acid.
(§3) After incubating the cells with Fura-2 AM, the cells were rinsed with Krebs buffer and changes in the intracellular Ca^2+ concentration were monitored by determining the ratio of emitted light intensities at 520 nm in response to excitation at 340 and 380 nm using FLEXstation II (Molecular Devices, Sunnyvale, Calif.). Each well was monitored for 80-120 sec. For testing agonist activity of the compounds, the test compounds were added automatically after 15 sec of baseline measurement. […] Each test was performed in quadruplicate. EC50, IC50, and Ki values were calculated by fitting a sigmoid function to data points with the nonlinear curve-fitting feature of KaleidaGraph (Synergy Software, Essex Junction, Vt.).
(§4) Receptor activation using Ca^2+ mobilization assay. The assay for mobilization of intracellular Ca^2+ was performed as described. Briefly, rat hepatoma RH7777 cells stably expressing human LPA1, LPA2, or LPA3, and CHO cells stably expressing LPA4, were loaded with Fura-2 AM (Molecular Probes). Using a FLEXStation (Molecular Devices, Sunnyvale, Calif.), changes in intracellular Ca^2+ concentration were monitored. Ligand-induced changes in fluorescence were monitored for 80-120 seconds. Ca^2+ transients were quantified automatically by calculating the difference between maximum and baseline ratio values for each sample. […] Each test was performed in quadruplicate. EC50, IC50, and Ki values were calculated as described. The ligand properties of the compounds were evaluated using Ca^2+ mobilization assay for assessing the activation/inhibition of LPA1, LPA2, and LPA3 expressed in RH7777 cells and LPA4 expressed in CHO cells.

[3] = biological target: T3, human LPA4 (Homo sapiens, UniProt Q99677); test: Ca2+ mobilization assay, LPA4 in CHO cells; assay type: cell-based; conditions: CHO cells stably expressing LPA4; agonist mode
T3 construct: expressed in transfected cells
Protocol: as §1
Stable transformants of LPA4. CHO cells stably expressing either vector or LPA4 were plated on non-coated 96 well plates at a density of 4×10^4 cells/well and cultured overnight. The following day, cells were loaded with Fura-2 AM for 1 h in modified Krebs buffer containing 2% (v/v) pluronic acid and 2.5 mM probenecid.
as §3, §4

[4] = biological target: T4, human LPA1 (Homo sapiens, UniProt Q92633); test: Ca2+ mobilization assay, LPA1; assay type: cell-based; conditions: for EC50: RH7777 cells stably expressing LPA1, agonist mode; for IC50: antagonist mode vs 200 nM LPA, PA = partial antagonist, read-out: LPA1 IC50
T4 construct: expressed in transfected cells
Protocol: as §1, §2
After incubating the cells with Fura-2 AM, the cells were rinsed with Krebs buffer and changes in the intracellular Ca^2+ concentration were monitored by determining the ratio of emitted light intensities at 520 nm in response to excitation at 340 and 380 nm using FLEXstation II (Molecular Devices, Sunnyvale, Calif.). Each well was monitored for 80-120 sec. For testing agonist activity of the compounds, the test compounds were added automatically after 15 sec of baseline measurement. To determine antagonist properties, varying concentrations of the compounds were mixed with a constant concentration of LPA and responses were monitored. Each test was performed in quadruplicate. EC50, IC50, and Ki values were calculated by fitting a sigmoid function to data points with the nonlinear curve-fitting feature of KaleidaGraph (Synergy Software, Essex Junction, Vt.).
Receptor activation using Ca^2+ mobilization assay. The assay for mobilization of intracellular Ca^2+ was performed as described. Briefly, rat hepatoma RH7777 cells stably expressing human LPA1, LPA2, or LPA3, and CHO cells stably expressing LPA4, were loaded with Fura-2 AM (Molecular Probes). Using a FLEXStation (Molecular Devices, Sunnyvale, Calif.), changes in intracellular Ca^2+ concentration were monitored. Ligand-induced changes in fluorescence were monitored for 80-120 seconds. Ca^2+ transients were quantified automatically by calculating the difference between maximum and baseline ratio values for each sample. To determine antagonist properties, different concentrations of each analogue were mixed with either palmitoyl (16:0) or oleoyl (18:1) LPA (200 nM for LPA1 and LPA3, 10 nM for LPA2, and 400 nM for LPA4) (Avanti Polar Lipids, Inc., […], Ala.) and responses were recorded. Each test was performed in quadruplicate. EC50, IC50, and Ki values were calculated as described. The ligand properties of the compounds were evaluated using Ca^2+ mobilization assay for assessing the activation/inhibition of LPA1, LPA2, and LPA3 expressed in RH7777 cells and LPA4 expressed in CHO cells. Table l illustrates calcium responses elicited through the activation of human LPA1, LPA2, LPA3 and LPA4 receptors. These cell lines have been used extensively for the characterization of LPA GPCR ligands because RH7777 cells are intrinsically unresponsive to LPA and CHO cells show minimal endogenous responses to LPA unless transfected with LPA4.

[5] = biological target: T5, human LPA2 (Homo sapiens, UniProt Q9HBW0); test: Ca2+ mobilization assay, LPA2; assay type: cell-based; conditions: RH7777 cells stably expressing LPA2; agonist mode
T5 construct: expressed in transfected cells
Protocol: as §1, §2, §3, §4

[6] = biological target: T6, PPARγ (Homo sapiens, UniProt P37231); test: PPARγ activation assay (PPRE-Acox-Rluc reporter in CV-1 cells); assay type: cell-based; conditions: 10 μM test analogue, 20 h
T6 construct: expressed in transfected cells; host or cells: CV-1 cells, transient (LipofectAMINE 2000)
T6 sequence (P37231 1-505): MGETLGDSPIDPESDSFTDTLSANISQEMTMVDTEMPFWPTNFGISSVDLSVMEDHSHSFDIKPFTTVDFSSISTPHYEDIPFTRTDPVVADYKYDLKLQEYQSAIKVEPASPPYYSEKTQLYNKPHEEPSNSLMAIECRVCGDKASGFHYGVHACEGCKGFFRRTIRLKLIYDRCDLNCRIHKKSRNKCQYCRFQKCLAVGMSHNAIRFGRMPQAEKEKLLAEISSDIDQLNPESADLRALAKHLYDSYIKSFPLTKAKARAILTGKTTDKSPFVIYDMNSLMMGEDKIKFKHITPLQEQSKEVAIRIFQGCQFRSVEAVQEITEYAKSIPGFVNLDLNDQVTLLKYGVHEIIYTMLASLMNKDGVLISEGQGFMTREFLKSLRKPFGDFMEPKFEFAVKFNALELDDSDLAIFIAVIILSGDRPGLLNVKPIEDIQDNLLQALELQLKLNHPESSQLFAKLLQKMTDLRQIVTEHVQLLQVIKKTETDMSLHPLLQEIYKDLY
Protocol: PPARγ activation assay. PPARγ activation was performed using CV-1 cells transfected with an acyl-coenzyme A oxidase-luciferase (PPRE-Acox-Rluc) reporter gene construct as previously reported. Briefly, CV-1 cells were plated in 96-well plates at a density of 1×10^4 cells per well in Dulbecco's modified Eagle's medium supplemented with 10% fetal bovine serum. The next day, the cells were transiently transfected with 125 ng of pGL3-PPRE-Acox-Rluc, 62.5 ng of pcDNA3.1 PPARγ, and 12.5 ng of pSV-β-galactosidase (Promega) using LipofectAMINE 2000 (Invitrogen). Twenty-four hours after transfection, cells were treated with OptiMEM (Invitrogen) containing 10 μM Rosiglitazone or 10 μM of the test analogue dissolved in DMSO for 20 h. Luciferase and β-galactosidase activities were measured with Steady-Glo® Luciferase Assay System (Promega) and the Galacto-Light Plus™ system (Applied Biosystems), respectively. Samples were run in quadruplicate and the mean ±standard errors were calculated. Data are representative of at least two independent transfections.

T4 sequence (Q92633 whole entry): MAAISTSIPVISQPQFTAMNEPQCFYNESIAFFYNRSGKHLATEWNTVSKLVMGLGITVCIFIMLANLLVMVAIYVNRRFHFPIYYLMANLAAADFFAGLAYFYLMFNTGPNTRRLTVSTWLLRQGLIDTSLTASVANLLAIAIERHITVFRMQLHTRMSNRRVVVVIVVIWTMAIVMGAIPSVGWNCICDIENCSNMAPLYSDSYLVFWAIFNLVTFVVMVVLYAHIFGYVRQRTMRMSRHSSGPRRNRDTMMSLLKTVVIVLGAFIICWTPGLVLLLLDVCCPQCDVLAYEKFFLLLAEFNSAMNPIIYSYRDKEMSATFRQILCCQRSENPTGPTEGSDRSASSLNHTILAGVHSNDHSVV
T3 sequence (Q99677 whole entry): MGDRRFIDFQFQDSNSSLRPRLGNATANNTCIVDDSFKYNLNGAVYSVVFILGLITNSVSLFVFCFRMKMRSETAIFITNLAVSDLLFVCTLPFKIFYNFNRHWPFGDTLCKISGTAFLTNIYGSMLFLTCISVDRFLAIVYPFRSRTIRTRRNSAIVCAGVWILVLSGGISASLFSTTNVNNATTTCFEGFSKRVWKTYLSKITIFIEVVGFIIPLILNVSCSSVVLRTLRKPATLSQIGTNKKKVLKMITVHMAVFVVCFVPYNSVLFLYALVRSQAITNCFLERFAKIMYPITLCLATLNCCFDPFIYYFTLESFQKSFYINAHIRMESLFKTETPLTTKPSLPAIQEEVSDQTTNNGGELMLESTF
T5 sequence (Q9HBW0 whole entry): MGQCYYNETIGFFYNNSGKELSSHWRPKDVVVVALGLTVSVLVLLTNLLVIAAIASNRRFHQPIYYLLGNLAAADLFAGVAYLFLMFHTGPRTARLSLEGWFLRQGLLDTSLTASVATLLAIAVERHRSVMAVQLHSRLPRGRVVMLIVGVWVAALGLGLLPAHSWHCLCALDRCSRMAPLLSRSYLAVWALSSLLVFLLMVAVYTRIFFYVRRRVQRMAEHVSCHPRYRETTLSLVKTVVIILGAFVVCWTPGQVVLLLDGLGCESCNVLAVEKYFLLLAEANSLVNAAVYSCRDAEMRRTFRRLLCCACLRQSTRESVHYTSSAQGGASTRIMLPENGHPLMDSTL

Compound	Inhibition (%) of autotaxin (ATX) phosphodiesterase activity [1]	EC50 [2]	EC50 [3]	EC50 [4]	IC50 [4]	EC50 [5]	PPARγ (PPRE luciferase reporter gene assay) [6]
CCCCCC/C=C\CCCCCCCC(=O)OCC1COP(=O)(O)C1 (centres unmarked) [2ccPA (16:1), 2-carba cyclic phosphatidic acid 16:1, reference compound]	78.5 ± 2.3%						
CCCCCCCCCCCCCCCC(=O)OCC(O)CC(O)P(=O)([O-])O.[Na+] (centres unmarked) [Compound 24a, reference compound]	56.6%	> 30 µM	> 30 µM	> 30 µM	> 30 µM	> 30 µM	
CCCCCCCCCCCCCCCC(=O)OCC(O)CC(O)P(=O)([O-])O.[Na+] (centres unmarked) [Compound 24b, reference compound]	43.4%	> 30 µM	> 30 µM	> 30 µM	> 30 µM	> 30 µM	
CCCCCCCC/C=C\CCCCCCCC(=O)OC[C@@H](O)COP(=O)(O)O [LPA (18:1), reference compound]	88.4 ± 1.3%			0.1 ± 0.0132 µM	> 30 µM		Ago-
